Data: patent US8772480B2, “Inhibitors of PI3 kinase and/or mTOR” (priority 2009, dated 2014)

target: ProfilerPro Kinase Selectivity Assay Kit kinases (Homo sapiens, UniProt P28482); type: biochemical; details: ERK2; 1 μM compound concentration
Procedure: (§1) Compounds were profiled using a LabChip® EZ Reader II platform and a ProfilerPro Kinase Selectivity Assay Kit (Caliper Lifesciences Inc., Hopkinton, Mass.). Compounds were tested at a concentration of 1 M in duplicate, with mean data reported as percent of control (POC).

Row | SMILES | POC (Percent of control) ERK2
1 | COc1ccc(Nc2ncccc2-c2nc(C)nc3[nH]cnc23)cn1 [Example 58, N-(6-methoxypyridin-3-yl)-3-(2-methyl-9H-purin-6-yl)pyridin-2-amine] | 103 POC

target: ProfilerPro Kinase Selectivity Assay Kit kinases (Homo sapiens, UniProt O75116); type: biochemical; details: ROCK2; 1 μM compound concentration
Procedure: as §1

Row | SMILES | POC (Percent of control) ROCK2
2 | COc1ccc(Nc2ncccc2-c2nc(C)nc3[nH]cnc23)cn1 [Example 58, N-(6-methoxypyridin-3-yl)-3-(2-methyl-9H-purin-6-yl)pyridin-2-amine] | 100 POC

target: ProfilerPro Kinase Selectivity Assay Kit kinases (Homo sapiens, UniProt P23443); type: biochemical; details: p70S6K; 1 μM compound concentration
Procedure: as §1

Row | SMILES | POC (Percent of control) p70S6K
3 | COc1ccc(Nc2ncccc2-c2nc(C)nc3[nH]cnc23)cn1 [Example 58, N-(6-methoxypyridin-3-yl)-3-(2-methyl-9H-purin-6-yl)pyridin-2-amine] | 98 POC

target: ProfilerPro Kinase Selectivity Assay Kit kinases (Homo sapiens, UniProt Q16566); type: biochemical; details: CAMK4; 1 μM compound concentration
Procedure: as §1

Row | SMILES | POC (Percent of control) CAMK4
4 | COc1ccc(Nc2ncccc2-c2nc(C)nc3[nH]cnc23)cn1 [Example 58, N-(6-methoxypyridin-3-yl)-3-(2-methyl-9H-purin-6-yl)pyridin-2-amine] | 95 POC

target: ProfilerPro Kinase Selectivity Assay Kit kinases (Homo sapiens, UniProt O00141); type: biochemical; details: SGK1; 1 μM compound concentration
Procedure: as §1

Row | SMILES | POC (Percent of control) SGK1
5 | COc1ccc(Nc2ncccc2-c2nc(C)nc3[nH]cnc23)cn1 [Example 58, N-(6-methoxypyridin-3-yl)-3-(2-methyl-9H-purin-6-yl)pyridin-2-amine] | 97 POC

target: ProfilerPro Kinase Selectivity Assay Kit kinases (Homo sapiens, UniProt O14757); type: biochemical; details: CHK1; 1 μM compound concentration
Procedure: as §1

Row | SMILES | POC (Percent of control) CHK1
6 | COc1ccc(Nc2ncccc2-c2nc(C)nc3[nH]cnc23)cn1 [Example 58, N-(6-methoxypyridin-3-yl)-3-(2-methyl-9H-purin-6-yl)pyridin-2-amine] | 101 POC

target: ProfilerPro Kinase Selectivity Assay Kit kinases (Homo sapiens, UniProt P07948); type: biochemical; details: LYN; 1 μM compound concentration
Sequence (P07948 2-512 limits assumed): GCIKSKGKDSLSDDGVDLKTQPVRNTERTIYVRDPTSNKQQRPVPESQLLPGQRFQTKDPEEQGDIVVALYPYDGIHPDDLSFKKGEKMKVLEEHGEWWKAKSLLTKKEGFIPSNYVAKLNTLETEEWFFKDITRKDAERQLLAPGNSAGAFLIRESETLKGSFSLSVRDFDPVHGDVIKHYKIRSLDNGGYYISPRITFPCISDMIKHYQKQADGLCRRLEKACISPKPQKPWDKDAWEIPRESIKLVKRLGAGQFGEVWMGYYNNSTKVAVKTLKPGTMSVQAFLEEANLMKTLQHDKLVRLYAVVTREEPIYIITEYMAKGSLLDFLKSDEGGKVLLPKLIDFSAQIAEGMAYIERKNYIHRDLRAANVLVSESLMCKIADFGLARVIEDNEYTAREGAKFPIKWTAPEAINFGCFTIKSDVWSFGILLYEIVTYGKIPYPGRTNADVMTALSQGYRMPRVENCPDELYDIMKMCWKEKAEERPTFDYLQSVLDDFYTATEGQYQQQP
Procedure: as §1

Row | SMILES | POC (Percent of control) LYN
7 | COc1ccc(Nc2ncccc2-c2nc(C)nc3[nH]cnc23)cn1 [Example 58, N-(6-methoxypyridin-3-yl)-3-(2-methyl-9H-purin-6-yl)pyridin-2-amine] | 100 POC

tested on: ProfilerPro Kinase Selectivity Assay Kit kinases; type: biochemical; details: AMPK; 1 μM compound concentration
Procedure: as §1

Row | SMILES | POC (Percent of control) AMPK
8 | COc1ccc(Nc2ncccc2-c2nc(C)nc3[nH]cnc23)cn1 [Example 58, N-(6-methoxypyridin-3-yl)-3-(2-methyl-9H-purin-6-yl)pyridin-2-amine] | 99 POC

same assay, conditions: CAMK2; 1 μM compound concentration

Row | SMILES | POC (Percent of control) CAMK2
9 | COc1ccc(Nc2ncccc2-c2nc(C)nc3[nH]cnc23)cn1 [Example 58, N-(6-methoxypyridin-3-yl)-3-(2-methyl-9H-purin-6-yl)pyridin-2-amine] | 103 POC

same assay, conditions: PKC beta2; 1 μM compound concentration

Row | SMILES | POC (Percent of control) PKC beta2
10 | COc1ccc(Nc2ncccc2-c2nc(C)nc3[nH]cnc23)cn1 [Example 58, N-(6-methoxypyridin-3-yl)-3-(2-methyl-9H-purin-6-yl)pyridin-2-amine] | 161 POC

same assay, conditions: TAK1; 1 μM compound concentration

Row | SMILES | POC (Percent of control) TAK1
11 | COc1ccc(Nc2ncccc2-c2nc(C)nc3[nH]cnc23)cn1 [Example 58, N-(6-methoxypyridin-3-yl)-3-(2-methyl-9H-purin-6-yl)pyridin-2-amine] | 107 POC

target: ProfilerPro Kinase Selectivity Assay Kit kinases (Homo sapiens, UniProt P06239); type: biochemical; details: LCK; 1 μM compound concentration
Procedure: as §1

Row | SMILES | POC (Percent of control) LCK
12 | COc1ccc(Nc2ncccc2-c2nc(C)nc3[nH]cnc23)cn1 [Example 58, N-(6-methoxypyridin-3-yl)-3-(2-methyl-9H-purin-6-yl)pyridin-2-amine] | 98 POC

target: ProfilerPro Kinase Selectivity Assay Kit kinases (Homo sapiens, UniProt P49137); type: biochemical; details: MAPKAPK2; 1 μM compound concentration
Procedure: as §1

Row | SMILES | POC (Percent of control) MAPKAPK2
13 | COc1ccc(Nc2ncccc2-c2nc(C)nc3[nH]cnc23)cn1 [Example 58, N-(6-methoxypyridin-3-yl)-3-(2-methyl-9H-purin-6-yl)pyridin-2-amine] | 96 POC

target: ProfilerPro Kinase Selectivity Assay Kit kinases (Homo sapiens, UniProt Q16539); type: biochemical; details: p38 alpha; 1 μM compound concentration
Procedure: as §1

Row | SMILES | POC (Percent of control) p38 alpha
14 | COc1ccc(Nc2ncccc2-c2nc(C)nc3[nH]cnc23)cn1 [Example 58, N-(6-methoxypyridin-3-yl)-3-(2-methyl-9H-purin-6-yl)pyridin-2-amine] | 98 POC

target: ProfilerPro Kinase Selectivity Assay Kit kinases (Homo sapiens, UniProt Q9P1W9); type: biochemical; details: PIM2; 1 μM compound concentration
Procedure: as §1

Row | SMILES | POC (Percent of control) PIM2
15 | COc1ccc(Nc2ncccc2-c2nc(C)nc3[nH]cnc23)cn1 [Example 58, N-(6-methoxypyridin-3-yl)-3-(2-methyl-9H-purin-6-yl)pyridin-2-amine] | 94 POC

target: ProfilerPro Kinase Selectivity Assay Kit kinases (Homo sapiens, UniProt Q9BZL6); type: biochemical; details: PKD2; 1 μM compound concentration
Procedure: as §1

Row | SMILES | POC (Percent of control) PKD2
16 | COc1ccc(Nc2ncccc2-c2nc(C)nc3[nH]cnc23)cn1 [Example 58, N-(6-methoxypyridin-3-yl)-3-(2-methyl-9H-purin-6-yl)pyridin-2-amine] | 92 POC

target: ProfilerPro Kinase Selectivity Assay Kit kinases (Homo sapiens, UniProt Q13976); type: biochemical; details: PKGa2; 1 μM compound concentration
Procedure: as §1

Row | SMILES | POC (Percent of control) PKGa2
17 | COc1ccc(Nc2ncccc2-c2nc(C)nc3[nH]cnc23)cn1 [Example 58, N-(6-methoxypyridin-3-yl)-3-(2-methyl-9H-purin-6-yl)pyridin-2-amine] | 97 POC

target: ProfilerPro Kinase Selectivity Assay Kit kinases (Homo sapiens, UniProt Q13627); type: biochemical; details: DYRK1a; 1 μM compound concentration
Procedure: as §1

Row | SMILES | POC (Percent of control) DYRK1a
18 | COc1ccc(Nc2ncccc2-c2nc(C)nc3[nH]cnc23)cn1 [Example 58, N-(6-methoxypyridin-3-yl)-3-(2-methyl-9H-purin-6-yl)pyridin-2-amine] | 93 POC

target: ProfilerPro Kinase Selectivity Assay Kit kinases (Homo sapiens, UniProt P00519); type: biochemical; details: ABL; 1 μM compound concentration
Procedure: as §1

Row | SMILES | POC (Percent of control) ABL
19 | COc1ccc(Nc2ncccc2-c2nc(C)nc3[nH]cnc23)cn1 [Example 58, N-(6-methoxypyridin-3-yl)-3-(2-methyl-9H-purin-6-yl)pyridin-2-amine] | 99 POC

target: ProfilerPro Kinase Selectivity Assay Kit kinases (Homo sapiens, UniProt O75582); type: biochemical; details: MSK1; 1 μM compound concentration
Procedure: as §1

Row | SMILES | POC (Percent of control) MSK1
20 | COc1ccc(Nc2ncccc2-c2nc(C)nc3[nH]cnc23)cn1 [Example 58, N-(6-methoxypyridin-3-yl)-3-(2-methyl-9H-purin-6-yl)pyridin-2-amine] | 98 POC

target: ProfilerPro Kinase Selectivity Assay Kit kinases (Homo sapiens, UniProt P08581); type: biochemical; details: cMET; 1 μM compound concentration
Sequence (P08581 25-1390 limits assumed): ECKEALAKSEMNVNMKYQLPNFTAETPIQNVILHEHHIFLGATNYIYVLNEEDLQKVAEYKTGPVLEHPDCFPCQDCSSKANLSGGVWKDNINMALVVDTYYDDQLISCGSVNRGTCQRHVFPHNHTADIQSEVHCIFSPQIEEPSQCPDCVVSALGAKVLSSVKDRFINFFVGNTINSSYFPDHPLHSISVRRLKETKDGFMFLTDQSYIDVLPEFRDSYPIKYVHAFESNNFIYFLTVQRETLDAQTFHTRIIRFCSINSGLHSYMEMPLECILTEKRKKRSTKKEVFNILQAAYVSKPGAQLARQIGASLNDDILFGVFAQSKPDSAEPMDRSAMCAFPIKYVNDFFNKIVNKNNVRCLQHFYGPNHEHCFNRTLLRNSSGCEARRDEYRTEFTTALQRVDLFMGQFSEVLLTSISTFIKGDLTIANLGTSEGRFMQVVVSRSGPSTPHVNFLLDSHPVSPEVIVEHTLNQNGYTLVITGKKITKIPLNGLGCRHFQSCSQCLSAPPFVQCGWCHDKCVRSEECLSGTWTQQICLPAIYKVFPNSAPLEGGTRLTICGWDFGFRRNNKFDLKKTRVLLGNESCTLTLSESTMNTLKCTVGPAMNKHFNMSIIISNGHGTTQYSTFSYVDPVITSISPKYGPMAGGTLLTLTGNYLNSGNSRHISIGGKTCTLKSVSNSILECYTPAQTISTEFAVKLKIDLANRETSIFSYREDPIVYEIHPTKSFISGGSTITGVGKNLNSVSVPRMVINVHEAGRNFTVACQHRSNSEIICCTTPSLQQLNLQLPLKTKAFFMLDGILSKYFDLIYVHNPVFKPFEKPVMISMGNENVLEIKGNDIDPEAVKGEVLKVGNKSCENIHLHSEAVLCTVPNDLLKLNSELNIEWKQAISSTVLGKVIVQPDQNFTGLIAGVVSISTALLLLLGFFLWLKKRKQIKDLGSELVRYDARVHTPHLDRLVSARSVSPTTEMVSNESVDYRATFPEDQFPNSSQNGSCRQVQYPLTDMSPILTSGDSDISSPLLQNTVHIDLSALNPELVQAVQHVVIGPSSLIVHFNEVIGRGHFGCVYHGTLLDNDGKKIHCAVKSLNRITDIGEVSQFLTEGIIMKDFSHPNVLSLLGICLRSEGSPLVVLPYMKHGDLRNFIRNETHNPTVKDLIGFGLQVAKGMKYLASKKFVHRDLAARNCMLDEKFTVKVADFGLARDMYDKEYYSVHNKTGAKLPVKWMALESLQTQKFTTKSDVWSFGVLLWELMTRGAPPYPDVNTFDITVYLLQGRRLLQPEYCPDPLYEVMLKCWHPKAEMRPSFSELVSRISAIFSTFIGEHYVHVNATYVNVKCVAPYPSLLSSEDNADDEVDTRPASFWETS
Procedure: as §1

Row | SMILES | POC (Percent of control) cMET
21 | COc1ccc(Nc2ncccc2-c2nc(C)nc3[nH]cnc23)cn1 [Example 58, N-(6-methoxypyridin-3-yl)-3-(2-methyl-9H-purin-6-yl)pyridin-2-amine] | 103 POC

target: ProfilerPro Kinase Selectivity Assay Kit kinases (Homo sapiens, UniProt P35968); type: biochemical; details: KDR; 1 μM compound concentration
Sequence (P35968 20-1356 limits assumed): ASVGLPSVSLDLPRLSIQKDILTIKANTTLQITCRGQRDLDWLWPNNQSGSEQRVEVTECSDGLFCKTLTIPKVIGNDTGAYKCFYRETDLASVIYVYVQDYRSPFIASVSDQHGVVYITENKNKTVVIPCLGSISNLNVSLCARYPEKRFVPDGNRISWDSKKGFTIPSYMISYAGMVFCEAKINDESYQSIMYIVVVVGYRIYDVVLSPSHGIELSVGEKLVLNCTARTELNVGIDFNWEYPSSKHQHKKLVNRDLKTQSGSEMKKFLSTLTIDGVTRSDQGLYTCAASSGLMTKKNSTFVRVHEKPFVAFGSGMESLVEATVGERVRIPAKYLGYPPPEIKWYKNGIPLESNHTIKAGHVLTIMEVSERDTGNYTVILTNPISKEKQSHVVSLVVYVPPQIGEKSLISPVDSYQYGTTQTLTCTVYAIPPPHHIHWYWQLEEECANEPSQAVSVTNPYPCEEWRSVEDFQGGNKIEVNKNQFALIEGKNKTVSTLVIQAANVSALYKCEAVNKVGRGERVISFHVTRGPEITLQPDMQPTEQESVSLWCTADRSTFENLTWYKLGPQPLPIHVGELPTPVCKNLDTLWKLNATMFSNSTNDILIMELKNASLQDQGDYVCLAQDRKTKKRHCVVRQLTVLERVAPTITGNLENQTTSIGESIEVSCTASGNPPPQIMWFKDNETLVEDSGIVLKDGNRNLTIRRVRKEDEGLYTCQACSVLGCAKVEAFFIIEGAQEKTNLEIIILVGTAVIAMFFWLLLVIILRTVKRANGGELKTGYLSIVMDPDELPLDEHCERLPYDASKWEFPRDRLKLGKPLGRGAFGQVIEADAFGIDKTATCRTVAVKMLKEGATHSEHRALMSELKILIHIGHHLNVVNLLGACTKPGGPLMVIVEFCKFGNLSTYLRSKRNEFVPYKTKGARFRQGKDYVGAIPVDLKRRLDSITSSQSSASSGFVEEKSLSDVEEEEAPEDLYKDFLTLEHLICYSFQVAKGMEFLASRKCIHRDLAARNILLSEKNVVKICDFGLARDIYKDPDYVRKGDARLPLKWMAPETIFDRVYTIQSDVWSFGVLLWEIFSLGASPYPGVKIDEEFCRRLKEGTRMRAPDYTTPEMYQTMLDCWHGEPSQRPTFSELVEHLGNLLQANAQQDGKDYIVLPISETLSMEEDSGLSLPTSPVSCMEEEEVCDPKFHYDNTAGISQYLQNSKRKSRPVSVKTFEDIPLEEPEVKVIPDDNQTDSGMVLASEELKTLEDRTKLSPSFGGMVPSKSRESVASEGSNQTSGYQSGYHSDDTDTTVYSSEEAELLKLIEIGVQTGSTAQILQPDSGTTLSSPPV
Procedure: as §1

Row | SMILES | POC (Percent of control) KDR
22 | COc1ccc(Nc2ncccc2-c2nc(C)nc3[nH]cnc23)cn1 [Example 58, N-(6-methoxypyridin-3-yl)-3-(2-methyl-9H-purin-6-yl)pyridin-2-amine] | 93 POC

target: ProfilerPro Kinase Selectivity Assay Kit kinases (Homo sapiens, UniProt Q9P0L2); type: biochemical; details: MARK1; 1 μM compound concentration
Procedure: as §1

Row | SMILES | POC (Percent of control) MARK1
23 | COc1ccc(Nc2ncccc2-c2nc(C)nc3[nH]cnc23)cn1 [Example 58, N-(6-methoxypyridin-3-yl)-3-(2-methyl-9H-purin-6-yl)pyridin-2-amine] | 146 POC

target: ProfilerPro Kinase Selectivity Assay Kit kinases (Homo sapiens, UniProt P49841); type: biochemical; details: GSK3 beta; 1 μM compound concentration
Procedure: as §1

Row | SMILES | POC (Percent of control) GSK3 beta
24 | COc1ccc(Nc2ncccc2-c2nc(C)nc3[nH]cnc23)cn1 [Example 58, N-(6-methoxypyridin-3-yl)-3-(2-methyl-9H-purin-6-yl)pyridin-2-amine] | 101 POC

target: ProfilerPro Kinase Selectivity Assay Kit kinases (Homo sapiens, UniProt P11362); type: biochemical; details: FGFR1; 1 μM compound concentration
Sequence (P11362 22-822 limits assumed): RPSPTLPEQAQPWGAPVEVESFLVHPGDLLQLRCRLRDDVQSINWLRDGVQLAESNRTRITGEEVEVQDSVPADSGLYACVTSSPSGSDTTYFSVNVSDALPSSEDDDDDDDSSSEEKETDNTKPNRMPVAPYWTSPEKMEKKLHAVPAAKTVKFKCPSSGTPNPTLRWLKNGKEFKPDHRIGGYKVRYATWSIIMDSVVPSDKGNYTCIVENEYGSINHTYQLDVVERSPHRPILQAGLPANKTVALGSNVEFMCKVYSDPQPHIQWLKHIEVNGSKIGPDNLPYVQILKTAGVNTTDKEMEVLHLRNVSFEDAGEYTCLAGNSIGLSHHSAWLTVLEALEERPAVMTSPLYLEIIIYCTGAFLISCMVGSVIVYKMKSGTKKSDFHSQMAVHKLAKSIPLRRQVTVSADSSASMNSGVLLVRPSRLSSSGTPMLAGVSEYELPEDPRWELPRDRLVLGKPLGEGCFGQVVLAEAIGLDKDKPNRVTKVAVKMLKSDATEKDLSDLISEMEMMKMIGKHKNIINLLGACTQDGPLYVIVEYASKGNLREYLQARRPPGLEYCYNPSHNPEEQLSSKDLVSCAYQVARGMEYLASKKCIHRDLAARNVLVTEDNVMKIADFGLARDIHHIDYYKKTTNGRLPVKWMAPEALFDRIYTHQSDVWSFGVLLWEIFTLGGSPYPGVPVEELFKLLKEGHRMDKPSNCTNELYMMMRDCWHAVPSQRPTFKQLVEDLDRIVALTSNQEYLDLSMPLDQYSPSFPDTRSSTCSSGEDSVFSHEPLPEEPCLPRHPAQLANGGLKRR
Procedure: as §1

Row | SMILES | POC (Percent of control) FGFR1
25 | COc1ccc(Nc2ncccc2-c2nc(C)nc3[nH]cnc23)cn1 [Example 58, N-(6-methoxypyridin-3-yl)-3-(2-methyl-9H-purin-6-yl)pyridin-2-amine] | 94 POC

target: ProfilerPro Kinase Selectivity Assay Kit kinases (Homo sapiens, UniProt P04049); type: biochemical; details: cRAF; 1 μM compound concentration
Procedure: as §1

Row | SMILES | POC (Percent of control) cRAF
26 | COc1ccc(Nc2ncccc2-c2nc(C)nc3[nH]cnc23)cn1 [Example 58, N-(6-methoxypyridin-3-yl)-3-(2-methyl-9H-purin-6-yl)pyridin-2-amine] | 99 POC

target: ProfilerPro Kinase Selectivity Assay Kit kinases (Homo sapiens, UniProt P36888); type: biochemical; details: FLT3; 1 μM compound concentration
Procedure: as §1

Row | SMILES | POC (Percent of control) FLT3
27 | COc1ccc(Nc2ncccc2-c2nc(C)nc3[nH]cnc23)cn1 [Example 58, N-(6-methoxypyridin-3-yl)-3-(2-methyl-9H-purin-6-yl)pyridin-2-amine] | 112 POC

target: ProfilerPro Kinase Selectivity Assay Kit kinases (Homo sapiens, UniProt Q06187); type: biochemical; details: BTK; 1 μM compound concentration
Sequence (Q06187 2-659 limits assumed): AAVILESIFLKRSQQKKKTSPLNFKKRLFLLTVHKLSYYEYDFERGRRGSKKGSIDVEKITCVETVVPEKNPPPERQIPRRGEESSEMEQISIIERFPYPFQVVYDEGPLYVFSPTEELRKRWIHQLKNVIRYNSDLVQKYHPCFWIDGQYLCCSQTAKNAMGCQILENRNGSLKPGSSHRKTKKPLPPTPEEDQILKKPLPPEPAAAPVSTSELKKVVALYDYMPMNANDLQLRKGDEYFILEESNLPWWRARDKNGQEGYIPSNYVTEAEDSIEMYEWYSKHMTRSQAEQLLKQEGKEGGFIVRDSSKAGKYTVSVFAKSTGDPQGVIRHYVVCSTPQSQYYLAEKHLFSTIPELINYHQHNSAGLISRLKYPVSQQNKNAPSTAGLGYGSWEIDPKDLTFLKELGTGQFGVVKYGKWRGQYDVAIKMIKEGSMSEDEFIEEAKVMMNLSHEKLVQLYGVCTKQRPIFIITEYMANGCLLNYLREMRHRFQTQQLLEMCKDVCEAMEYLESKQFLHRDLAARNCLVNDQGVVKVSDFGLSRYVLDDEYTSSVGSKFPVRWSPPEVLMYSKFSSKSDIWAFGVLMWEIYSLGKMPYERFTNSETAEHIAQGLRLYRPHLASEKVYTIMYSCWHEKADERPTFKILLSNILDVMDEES
Procedure: as §1

Row | SMILES | POC (Percent of control) BTK
28 | COc1ccc(Nc2ncccc2-c2nc(C)nc3[nH]cnc23)cn1 [Example 58, N-(6-methoxypyridin-3-yl)-3-(2-methyl-9H-purin-6-yl)pyridin-2-amine] | 102 POC

target: ProfilerPro Kinase Selectivity Assay Kit kinases (Homo sapiens, UniProt P31749); type: biochemical; details: AKT1; 1 μM compound concentration
Procedure: as §1

Row | SMILES | POC (Percent of control) AKT1
29 | COc1ccc(Nc2ncccc2-c2nc(C)nc3[nH]cnc23)cn1 [Example 58, N-(6-methoxypyridin-3-yl)-3-(2-methyl-9H-purin-6-yl)pyridin-2-amine] | 106 POC

target: ProfilerPro Kinase Selectivity Assay Kit kinases (Homo sapiens, UniProt Q8IW41); type: biochemical; details: PRAK; 1 μM compound concentration
Procedure: as §1

Row | SMILES | POC (Percent of control) PRAK
30 | COc1ccc(Nc2ncccc2-c2nc(C)nc3[nH]cnc23)cn1 [Example 58, N-(6-methoxypyridin-3-yl)-3-(2-methyl-9H-purin-6-yl)pyridin-2-amine] | 84 POC

target: ProfilerPro Kinase Selectivity Assay Kit kinases (Homo sapiens, UniProt P24941); type: biochemical; details: CDK2; 1 μM compound concentration
Procedure: as §1

Row | SMILES | POC (Percent of control) CDK2
31 | COc1ccc(Nc2ncccc2-c2nc(C)nc3[nH]cnc23)cn1 [Example 58, N-(6-methoxypyridin-3-yl)-3-(2-methyl-9H-purin-6-yl)pyridin-2-amine] | 99 POC

target: ProfilerPro Kinase Selectivity Assay Kit kinases (Homo sapiens, UniProt Q05513); type: biochemical; details: PKC zeta; 1 μM compound concentration
Procedure: as §1

Row | SMILES | POC (Percent of control) PKC zeta
32 | COc1ccc(Nc2ncccc2-c2nc(C)nc3[nH]cnc23)cn1 [Example 58, N-(6-methoxypyridin-3-yl)-3-(2-methyl-9H-purin-6-yl)pyridin-2-amine] | 142 POC

target: ProfilerPro Kinase Selectivity Assay Kit kinases (Homo sapiens, UniProt P27361); type: biochemical; details: ERK1; 1 μM compound concentration
Sequence (P27361 2-379 limits assumed): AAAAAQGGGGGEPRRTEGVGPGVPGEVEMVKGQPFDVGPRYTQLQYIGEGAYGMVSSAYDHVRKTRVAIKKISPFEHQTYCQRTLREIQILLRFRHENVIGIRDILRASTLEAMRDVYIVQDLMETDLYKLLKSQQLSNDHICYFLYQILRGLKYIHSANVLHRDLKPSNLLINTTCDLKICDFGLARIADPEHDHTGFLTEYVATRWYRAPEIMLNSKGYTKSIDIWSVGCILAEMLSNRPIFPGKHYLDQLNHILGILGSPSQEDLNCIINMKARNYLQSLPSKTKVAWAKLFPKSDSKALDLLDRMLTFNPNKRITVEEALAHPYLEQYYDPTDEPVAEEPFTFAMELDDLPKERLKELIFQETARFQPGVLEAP
Procedure: as §1

Row | SMILES | POC (Percent of control) ERK1
33 | COc1ccc(Nc2ncccc2-c2nc(C)nc3[nH]cnc23)cn1 [Example 58, N-(6-methoxypyridin-3-yl)-3-(2-methyl-9H-purin-6-yl)pyridin-2-amine] | 101 POC

target: ProfilerPro Kinase Selectivity Assay Kit kinases (Homo sapiens, UniProt O96017); type: biochemical; details: CHK2; 1 μM compound concentration
Procedure: as §1

Row | SMILES | POC (Percent of control) CHK2
34 | COc1ccc(Nc2ncccc2-c2nc(C)nc3[nH]cnc23)cn1 [Example 58, N-(6-methoxypyridin-3-yl)-3-(2-methyl-9H-purin-6-yl)pyridin-2-amine] | 99 POC
